# In patent US20260000676A1, “CHROMAN DERIVATIVES AS ESTROGEN RECEPTOR DEGRADERS” (THE REGENTS OF THE UNIVERSITY OF MICHIGAN, priority 2022, published 2026):
# What was measured:
# CRBN/DDB1 = CRBN/DDB1 (Homo sapiens (Human), UniProt Q96SW2); experiment: HTRF binding assay to CRBN/DDB1; settings: read-out: CRBN HTRF IC50
# Description: The binding potency was determined using HTRF assay technology (Perkin Elmer). Compounds were serially diluted in DMSO and 0.2 μL volume was transferred to white 384-well plate.
# ER [1] = molecular target: T1, ER (Homo sapiens (Human), UniProt P03372); experiment: In-cell western (ICW) ER degradation assay in T47D cells; type: cell-based; settings: 16 hrs; for DC50: ER degradation; for Dmax / T47D Dmax %: maximal ER degradation
# T1 sequence (P03372 whole entry): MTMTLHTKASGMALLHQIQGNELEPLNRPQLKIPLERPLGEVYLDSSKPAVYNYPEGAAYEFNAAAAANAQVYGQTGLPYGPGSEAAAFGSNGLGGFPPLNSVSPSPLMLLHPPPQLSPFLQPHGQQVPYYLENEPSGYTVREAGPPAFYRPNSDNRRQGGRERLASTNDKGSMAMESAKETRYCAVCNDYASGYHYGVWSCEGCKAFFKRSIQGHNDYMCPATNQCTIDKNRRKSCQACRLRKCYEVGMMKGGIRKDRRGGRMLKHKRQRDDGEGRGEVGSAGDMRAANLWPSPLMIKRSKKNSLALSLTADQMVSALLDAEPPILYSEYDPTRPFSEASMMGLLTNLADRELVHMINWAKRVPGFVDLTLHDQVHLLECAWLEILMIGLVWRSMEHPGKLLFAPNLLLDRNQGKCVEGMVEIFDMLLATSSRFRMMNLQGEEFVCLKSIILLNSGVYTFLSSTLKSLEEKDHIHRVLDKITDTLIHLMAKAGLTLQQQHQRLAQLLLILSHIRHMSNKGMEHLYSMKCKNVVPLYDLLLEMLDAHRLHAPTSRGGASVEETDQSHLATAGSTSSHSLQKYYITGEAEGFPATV
# Description: (§1) ERa degradative activity of compounds can be assessed in MCF-7 and T47D Cells. MCF-7 and T47D cell are seeded and are subsequently treated with the compounds at certain concentrations (e.g., 0.02 to 300 nM). DMSO can be used as vehicle control. Cells are fixed and are blocked with Intercept (PBS) Blocking Buffer (e.g., Li-COR, Odyssey Blocking Buffer), and are stained with ER (e.g., 1:500, Cell signaling) primary antibody for overnight at cold room. Secondary Antibody (e.g., IRDye 800CW Goat anti-Rabbit IgG) and CellTag 700 Stain are added in Intercept (PBS) Blocking Buffer. Finally, cell plate is placed in incubator to dry. Image and signal are captured on Odyssey® DLx Imaging System.
# (§2) Day 3: After 16 hrs of compounds treatment, cells were fixed by 4% PFA and permeabilized with elution buffer (0.1% Triton X-100 in 1% PBS Solution). Subsequently, cells were blocked with Intercept (PBS) Blocking Buffer (Li-COR, Odyssey Blocking Buffer), and were stained with ER (1:500, Cell signaling) primary antibody for overnight at cold room.
# (§3) Day 4: Remove the buffer, add IRDye 800CW Goat anti-Rabbit IgG Secondary Antibody (1:2000) and CellTag 700 Stain (1:500) in Intercept (PBS) Blocking Buffer. Finally, cell plate is placed in incubator to dry. Image and signal were captured on Odyssey® DLx Imaging System.
# ER [2] = molecular target: T1, ER; experiment: In-cell western (ICW) ER degradation assay in MCF-7 cells; type: cell-based; settings: MCF7, 16 hrs; for DC50: ER degradation; for Dmax: MCF7, maximal ER degradation; for MCF7 Dmax %: maximal ER degradation
# Description: as §1, §2, §3
# CRBN/DDB1, sequence (Q96SW2 whole entry): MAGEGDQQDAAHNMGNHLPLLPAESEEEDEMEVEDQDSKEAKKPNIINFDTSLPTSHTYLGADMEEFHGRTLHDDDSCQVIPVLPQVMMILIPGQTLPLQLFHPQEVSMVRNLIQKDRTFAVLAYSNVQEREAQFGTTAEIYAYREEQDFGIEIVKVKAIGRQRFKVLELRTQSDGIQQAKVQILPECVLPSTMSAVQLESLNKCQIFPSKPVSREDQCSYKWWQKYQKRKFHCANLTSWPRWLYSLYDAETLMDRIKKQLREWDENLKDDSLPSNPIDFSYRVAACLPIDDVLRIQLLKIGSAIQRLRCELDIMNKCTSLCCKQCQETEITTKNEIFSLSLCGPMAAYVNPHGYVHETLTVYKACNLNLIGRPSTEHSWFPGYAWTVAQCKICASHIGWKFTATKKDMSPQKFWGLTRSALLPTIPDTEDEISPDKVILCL
# CRBN/DDB1, sequence (Q16531 whole entry partner): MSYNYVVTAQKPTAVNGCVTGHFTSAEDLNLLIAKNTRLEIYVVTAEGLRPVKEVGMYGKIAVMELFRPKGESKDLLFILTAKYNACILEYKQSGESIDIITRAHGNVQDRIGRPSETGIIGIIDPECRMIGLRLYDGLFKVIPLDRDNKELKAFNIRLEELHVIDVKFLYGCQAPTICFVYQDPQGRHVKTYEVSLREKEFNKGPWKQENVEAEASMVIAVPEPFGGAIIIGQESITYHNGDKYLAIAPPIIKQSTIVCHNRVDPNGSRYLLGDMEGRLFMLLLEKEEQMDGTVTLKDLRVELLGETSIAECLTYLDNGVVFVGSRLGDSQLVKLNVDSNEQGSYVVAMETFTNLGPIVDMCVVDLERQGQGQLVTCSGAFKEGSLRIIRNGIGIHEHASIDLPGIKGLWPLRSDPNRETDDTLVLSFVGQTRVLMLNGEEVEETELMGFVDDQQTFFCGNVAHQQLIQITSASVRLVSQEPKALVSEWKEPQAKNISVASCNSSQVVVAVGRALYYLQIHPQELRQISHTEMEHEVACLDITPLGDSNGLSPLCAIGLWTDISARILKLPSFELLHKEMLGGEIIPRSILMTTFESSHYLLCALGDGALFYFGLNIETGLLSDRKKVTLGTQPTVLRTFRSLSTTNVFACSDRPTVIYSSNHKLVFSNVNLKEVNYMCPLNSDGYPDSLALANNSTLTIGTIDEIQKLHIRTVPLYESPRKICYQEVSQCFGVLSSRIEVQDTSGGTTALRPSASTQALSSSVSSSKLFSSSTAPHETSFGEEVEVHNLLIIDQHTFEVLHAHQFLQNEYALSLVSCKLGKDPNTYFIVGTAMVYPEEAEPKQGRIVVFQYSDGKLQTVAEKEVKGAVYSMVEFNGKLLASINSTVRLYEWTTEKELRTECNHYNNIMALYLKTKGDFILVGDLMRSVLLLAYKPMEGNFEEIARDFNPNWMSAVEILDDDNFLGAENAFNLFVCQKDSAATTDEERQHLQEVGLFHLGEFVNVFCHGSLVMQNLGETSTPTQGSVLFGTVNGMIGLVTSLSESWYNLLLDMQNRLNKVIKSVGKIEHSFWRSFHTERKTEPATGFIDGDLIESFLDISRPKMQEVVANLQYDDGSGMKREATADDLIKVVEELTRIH
compound,measurement,setting,value
"O=C1CCN(c2ccc(N3CCC4(CC3)CC(CN3CCN(c5ccc([C@@H]6c7ccc(O)cc7OC[C@@H]6c6ccccc6)cc5)CC3)C4)cc2)C(=O)N1 [Compound A112, 1-(4-(2-((4-(4-((3S,4R)-7-hydroxy-3-phenylchroman-4-yl)phenyl)piperazin-1-yl)methyl)-7-azaspiro[3.5]nonan-7-yl)phenyl)dihydropyrimidine-2,4(1H,3H)-dione]",IC50,CRBN/DDB1,> 5000 nM
same,DC50,ER [1],1 to 10 nM
same,Dmax,ER [1],< 25%
same,DC50,ER [2],> 100 nM
same,Dmax,ER [2],< 25%
"COc1cc(N2CCC3(CC2)CC(CN2CCN4c5ccc6c(c5OC[C@@H]4C2)CN([C@@H]2CCC(=O)NC2=O)C6=O)C3)c(F)cc1[C@H]1c2ccc(O)cc2OC[C@H]1c1ccccc1 [Compound A126, (R)-3-((S)-7-((7-(2-fluoro-4-((3R,4R)-7-hydroxy-3-phenylchroman-4-yl)-5-methoxyphenyl)-7-azaspiro[3.5]nonan-2-yl)methyl)-1-oxo-1,3,5,5a,6,7,8,9-octahydro-2H-pyrazino[1′,2′:4,5][1,4]oxazino[2,3-e]isoindol-2-yl)piperidine-2,6-dione]",IC50,CRBN/DDB1,< 50 nM
same,DC50,ER [1],< 1 nM
same,Dmax,ER [1],50 to 75%
same,DC50,ER [2],1 to 10 nM
same,Dmax,ER [2],25 to 50%
"Cn1c(=O)n(C2CCC(=O)NC2=O)c2ccc(C3CCN(CC4CC5(CCN(c6ccc([C@@H]7c8ccc(O)cc8OC[C@@H]7c7ccccc7)cc6)CC5)C4)CC3)cc21 (single isomer, unassigned) [Compound A73]",IC50,CRBN/DDB1,< 50 nM
same,DC50,ER [1],< 1 nM
same,Dmax,ER [1],50 to 75%
same,DC50,ER [2],< 1 nM
same,Dmax,ER [2],50 to 75%
"COc1cccc([C@H]2COc3cc(O)ccc3[C@H]2c2ccc(N3CCC(CN4CCN5c6ccc7c(c6OC[C@H]5C4)CN(C4CCC(=O)NC4=O)C7=O)CC3)cc2)c1 (single isomer, unassigned) [Compound A33]",IC50,CRBN/DDB1,< 50 nM
same,DC50,ER [1],1 to 10 nM
same,DC50,ER [2],1 to 10 nM
"O=C1CC[C@@H](Nc2ccc(C3CCN(C[C@@H]4COC5(CCN(c6ccc([C@@H]7c8ccc(O)cc8OC[C@@H]7c7ccccc7)cc6)CC5)C4)CC3)c(F)c2)C(=O)N1 (single isomer, unassigned) [Compound A165]",IC50,CRBN/DDB1,50 to 500 nM
same,DC50,ER [1],< 1 nM
same,Dmax,ER [1],50 to 75%
same,DC50,ER [2]; given as number,0.31 nM
same,Dmax,ER [2],25 to 50%
"O=C1CC[C@@H](Nc2ccc(C3CCN(C[C@H]4COC5(CCN(c6ccc([C@H]7c8ccc(O)cc8OC[C@H]7c7ccccc7)cc6)CC5)C4)CC3)c(F)c2)C(=O)N1 (single isomer, unassigned) [Compound A164]",IC50,CRBN/DDB1,< 50 nM
same,DC50,ER [1],1 to 10 nM
same,Dmax,ER [1],50 to 75%
same,DC50,ER [2],< 1 nM
same,Dmax,ER [2],25 to 50%
"O=C1CCC(NC(=O)c2ccc(N3CCN(CC4CCN(c5ccc([C@@H]6c7ccc(O)cc7OC[C@@H]6c6ccccc6)cc5)CC4)CC3)cn2)C(=O)N1 (single isomer, unassigned) [Compound A88]",IC50,CRBN/DDB1,> 5000 nM
same,DC50,ER [1],1 to 10 nM
same,Dmax,ER [1],50 to 75%
same,DC50,ER [2],1 to 10 nM
same,Dmax,ER [2],50 to 75%
"COc1cc(N2CCC(CN3CCN(c4ccc(C(=O)NC5CCC(=O)NC5=O)nc4)CC3)CC2)c(F)cc1[C@H]1c2ccc(O)cc2OC[C@H]1c1ccccc1 (stereo partly drawn) [Compound A109, N-(2,6-dioxopiperidin-3-yl)-5-(4-((1-(2-fluoro-4-((3R,4R)-7-hydroxy-3-phenylchroman-4-yl)-5-methoxyphenyl)piperidin-4-yl)methyl)piperazin-1-yl)picolinamide]",IC50,CRBN/DDB1,> 5000 nM
same,DC50,ER [1],1 to 10 nM
same,T47D Dmax %,ER [1],C (“C”: 25%-50%)
same,DC50,ER [2],10 to 100 nM
same,MCF7 Dmax %,ER [2],C (“C”: 25%-50%)
"O=C1CCC(NC(=O)c2ccc(N3CCC(CN4CCN(c5ccc([C@H]6c7ccc(O)cc7OC[C@H]6c6ccccc6)cc5)CC4)CC3)cn2)C(=O)N1 (stereo partly drawn) [Compound A129, N-(2,6-dioxopiperidin-3-yl)-5-(4-((4-(4-((3R,4S)-7-hydroxy-3-phenylchroman-4-yl)phenyl)piperazin-1-yl)methyl)piperidin-1-yl)picolinamide]",IC50,CRBN/DDB1,> 5000 nM
same,DC50,ER [1],10 to 100 nM
same,T47D Dmax %,ER [1],B (“B”: >50% and <75%)
same,DC50,ER [2],10 to 100 nM
same,MCF7 Dmax %,ER [2],C (“C”: 25%-50%)
"O=C1CC[C@@H](N2Cc3cc4c(cc3C2=O)OC[C@@H]2CN(C[C@H]3COC5(CCN(c6ccc([C@H]7c8ccc(O)cc8OC[C@H]7c7ccccc7)cc6)CC5)C3)CCN42)C(=O)N1 [Compound A152, (R)-3-((S)-3-(((S)-8-(4-((3R,4S)-7-hydroxy-3-phenylchroman-4-yl)phenyl)-1-oxa-8-azaspiro[4.5]decan-3-yl)methyl)-8-oxo-1,2,3,4,4a,5,8,10-octahydro-9H-pyrazino[1′,2′:4,5][1,4]oxazino[2,3-f]isoindol-9-yl)piperidine-2,6-dione]",IC50,CRBN/DDB1,50 to 500 nM
same,DC50,ER [1],1 to 10 nM
same,T47D Dmax %,ER [1],B (“B”: >50% and <75%)
same,DC50,ER [2],10 to 100 nM
same,MCF7 Dmax %,ER [2],B (“B”: >50% and <75%)
"COc1cc(N2CCC(CN3CCC4(CC3)COc3cc5c(cc34)CN(C3CCC(=O)NC3=O)C5=O)CC2)ccc1[C@H]1c2ccc(O)cc2OC[C@H]1c1ccccc1 (stereo partly drawn) [Compound A136, 3-(1′-((1-(4-((3R,4S)-7-hydroxy-3-phenylchroman-4-yl)-3-methoxyphenyl)piperidin-4-yl)methyl)-7-oxo-5,7-dihydro-2H,6H-spiro[furo[2,3-f]isoindole-3,4′-piperidin]-6-yl)piperidine-2,6-dione]",IC50,CRBN/DDB1,< 50 nM
same,DC50,ER [1],< 1 nM
same,Dmax,ER [1],50 to 75%
same,DC50,ER [2],< 1 nM
same,Dmax,ER [2],50 to 75%
"O=C1CC[C@@H](Nc2ccc(C3CCN(C[C@H]4COC5(CCN(c6ccc([C@@H]7c8ccc(O)cc8OC[C@@H]7c7ccccc7)cc6)CC5)C4)CC3)c(F)c2)C(=O)N1 (single isomer, unassigned) [Compound A163]",IC50,CRBN/DDB1,50 to 500 nM
same,DC50,ER [1],< 1 nM
same,Dmax,ER [1],50 to 75%
same,DC50,ER [2],< 1 nM
same,Dmax,ER [2],25 to 50%
"COc1cc(N2CCC(CN3CCN4c5cc6c(cc5OC[C@H]4C3)C(=O)N(C3CCC(=O)NC3=O)C6)CC2)ccc1[C@@H]1c2ccc(O)cc2OC[C@@H]1c1ccccc1 (single isomer, unassigned) [Compound A84, 3-((R)-3-((1-(4-((3S,4R)-7-hydroxy-3-phenylchroman-4-yl)-3-methoxyphenyl)piperidin-4-yl)methyl)-8-oxo-1,2,3,4,4a,5,8,10-octahydro-9H-pyrazino[1′,2′:4,5][1,4]oxazino[2,3-f]isoindol-9-yl)piperidine-2,6-dione]",IC50,CRBN/DDB1,500 to 5000 nM
same,DC50,ER [1],< 1 nM
same,DC50,ER [2],< 1 nM
"O=C1CCC(NC(=O)c2ccc3c(n2)OC[C@H]2CN(CC4CCN(c5ccc([C@H]6c7ccc(O)cc7OC[C@H]6c6ccccc6)cc5F)CC4)CCN32)C(=O)N1 (stereo partly drawn) [Compound A103, (4aR)-N-(2,6-dioxopiperidin-3-yl)-3-((1-(2-fluoro-4-((3R,4S)-7-hydroxy-3-phenylchroman-4-yl)phenyl)piperidin-4-yl)methyl)-1,2,3,4,4a,5-hexahydropyrazino[1,2-d]pyrido[2,3-b][1,4]oxazine-8-carboxamide]",IC50,CRBN/DDB1,500 to 5000 nM
same,DC50,ER [1],1 to 10 nM
same,Dmax,ER [1],50 to 75%
same,DC50,ER [2],1 to 10 nM
same,Dmax,ER [2],50 to 75%
"O=C1CCC(NC(=O)c2ccc3c(n2)OC[C@H]2CN(CC4CC5(CCN(c6ccc([C@@H]7c8ccc(O)cc8OC[C@@H]7c7ccccc7)cc6)CC5)C4)CCN32)C(=O)N1 (stereo partly drawn) [Compound A93, (4aR)-N-(2,6-dioxopiperidin-3-yl)-3-((7-(4-((3S,4R)-7-hydroxy-3-phenylchroman-4-yl)phenyl)-7-azaspiro[3.5]nonan-2-yl)methyl)-1,2,3,4,4a,5-hexahydropyrazino[1,2-d]pyrido[2,3-b][1,4]oxazine-8-carboxamide]",IC50,CRBN/DDB1,500 to 5000 nM
same,DC50,ER [1],< 1 nM
same,Dmax,ER [1],50 to 75%
same,DC50,ER [2],1 to 10 nM
same,Dmax,ER [2],50 to 75%
"O=C1CCC(N2Cc3c(ccc4c3OC[C@H]3CN(CC5CCN(c6ccc([C@@H]7c8ccc(O)cc8OC[C@@H]7c7ccccc7)cn6)CC5)CCN43)C2=O)C(=O)N1 (single isomer, unassigned) [Compound A69]",IC50,CRBN/DDB1,50 to 500 nM
same,DC50,ER [1],1 to 10 nM
same,Dmax,ER [1],25 to 50%
same,DC50,ER [2],1 to 10 nM
same,Dmax,ER [2],< 25%
"O=C1CCN(c2ccc(N3CCN(CC4CC5(CCN(c6ccc([C@@H]7c8ccc(O)cc8OC[C@@H]7c7ccccc7)cc6)CC5)C4)CC3)cc2)C(=O)N1 (single isomer, unassigned) [Compound A83]",IC50,CRBN/DDB1,> 5000 nM
same,DC50,ER [1],> 100 nM
same,Dmax,ER [1],< 25%
"O=C1CCN(c2ccc(N3CCC(CN4CC5(CCN(c6ccc([C@@H]7c8ccc(O)cc8OC[C@@H]7c7ccccc7)cc6)CC5)C4)CC3)cc2)C(=O)N1 (single isomer, unassigned) [Compound A87]",IC50,CRBN/DDB1,> 5000 nM
same,DC50,ER [1],1 to 10 nM
same,Dmax,ER [1],25 to 50%
"O=C1CCN(c2ccc(N3CCN(CC4CCN(c5ccc([C@@H]6c7ccc(O)cc7OC[C@@H]6c6ccccc6)cc5)CC4)CC3)cc2)C(=O)N1 (single isomer, unassigned) [Compound A82]",IC50,CRBN/DDB1,500 to 5000 nM
same,DC50,ER [1],1 to 10 nM
same,Dmax,ER [1],25 to 50%
